Assay [1] has as its system 3T3-L1-cells (mouse embryonic fibroblast-like preadipocytes cell line). As to the kind of experiment: Quantification of intracellular lipids (stimulation of adipogenesis), Nile Red. In kind it is cell-based. Details: Stimulation of adipogenesis: unit not given here. As to conditions: applied day −2 to day 2, Nile Red at day 10, vs hormone mix only. As for the experimental part: (§1) 3T3-L1-cells (mouse embryonic fibroblast-like preadipocytes cell line) were propagated in Dulbecco's Modified Eagle Medium (DMEM), enriched with 10% newborn calf serum (CS) at 37° C. and 5% CO2 and seeded in 48-well plates for lipid quantification. After reaching confluence at day −2 the differentiation was induced by changing medium at day 0 to DMEM with 10% fetal calf serum (FCS) containing a hormone mix (HM) of 1 μg/ml insulin, 0.25 μM dexamethasone (Dex) and 0.5 mM 3-isobutyl-1-methylxanthine (IBMX).
Compounds of interest such as compound of formula (I) are applied from day −2 (confluence of the cells) until day 2 using various concentrations. Medium is renewed every other day. At day 2, medium consisting of DMEM, 10% FCS and 1 μg/ml insulin is added. From day 4 on, only DMEM containing 10% FCS is used for further cultivation of cells. At day 10, quantification of the intracellular lipid droplets is performed by addition of the fluorescent dye Nile Red (9-diethylamino-5H-benzo[alpha]phenoxazine-5-one) for 20 minutes at 37° C. and 5% CO2. Fluorescence (RFU) is detected with excitation at 485 nm and emission at 535 nm.
Stimulation of the adipogenesis in the presence of the compounds of interest is calculated according to the following equation:
[formula] wherein • RFU test substance=Relative Fluorescence Units of the wells with test substance and with cells • RFU control=Relative Fluorescence Units of the wells stimulated with hormone mix only. • RFU without cells=Relative Fluorescence Units of the wells containing Nile Red only, without cells.

For assay [2], the system named is Preadipocyte factor 1 (Pref1). As to the kind of experiment: Real Time-PCR, expression of preadipocytes marker Pref-1 in 3T3-L1-cells. Type of assay: cell-based, mouse. Conditions: relative to hormone mix stimulation (set equal to one). Here is the method:
as §1, with “12-well” for “48-well”, “gene expression analysis.” for “lipid quantification.”, “−2,” for “−2”, “(IBMX). Compounds of interest such as compound of formula (I) are applied from day −2 (confluence of the cells) until day 2 using various concentrations. Medium is renewed every other day. At day 2, medium consisting of DMEM, 10% FCS and 1 μg/ml insulin is added. From day 4 on, only DMEM containing 10% FCS is used for further cultivation of cells. […]” for “(IBMX).”
Total RNA from cell culture samples was isolated using RNeasy Total RNA Kits (Qiagen, Hilden; Germany). The RNA concentration and purity was determined photometrically using 260/280 ratios (Biophotometer, Eppendorf, Hamburg, Germany). […] At least three independent experiments were performed with 2 determinations each and the mean value of these was calculated. […] Each sample was analyzed in duplicate employing the universal protocol over 46 cycles. […]

Take `CCCc1cc(OC)c2c(c1)C(C)C(c1ccc(O)c(OC)c1)O2` (centres unmarked) [compound of formula (I), 2-Methoxy-4-(7-methoxy-3-methyl-5-propyl-2,3-dihydro-benzofuran-2-yl)-phenol]: the Stimulation of adipogenesis in assay [1] (0.01 μM) came out at 18; in assay [1] (0.1 μM) it was 30; in assay [1] (0.25 μM), 35; in assay [1] (0.5 μM), 38; in assay [1] (0.75 μM) it was 48; in assay [1] (1 μM), 49. Also, the Stimulation of adipogenesis is on record as 48 in assay [1] (2.5 μM), 37 in assay [1] (5 μM) and 22 in assay [1] (10 μM). Besides, the “Relative expression at day 2, Pref-1” value in assay [2] (1 μM) is 0.3; in assay [2] (10 μM), 0.7.

(Values after US9066880B2, “Use of dihydrodehydrodiisoeugenol and preparations comprising dihydrodehydrodiisoeugenol” (SYMRISE AG, priority 2010, dated 2015).)
